Assay results as given in patent publication US20200390729A1, “OPHTHALMIC TOPICAL COMPOSITION COMPRISING DOBESILIC ACID FOR TREATING DISEASES OF THE POSTERIOR SEGMENT OF THE EYE” (LABORATORIOS SALVAT, S.A., priority 2017, published 2020).
Where two headings read alike, the source gives them in different places.

Legend:
[1] = Ocular distribution of CDO in rats, single dose topical ocular vs. oral; type: in vivo, Sprague Dawley (SD) rat; parameters: key to CDO concentrations Retina / CDO concentrations Optic nerve: —: non-detectable; conditions: for concentration at 6 h / concentration at 0.25 h / concentration at 1 h / concentration at 3 h: Sprague-Dawley
Experimental: In Sprague Dawley (SD) rat, weighing approximately 200 g, CDO was administered by topical ocular instillation (10 μl/eye) at 10 mg/ml (composition 2 of Example 1), at 100 mg/ml (composition 5 of Example 1) or by oral gavage at 50 mg/kg, at 200 mg/kg or at 750 mg/kg in aqueous solution (from compositions 1, 3 and 4, respectively, of Example 1). At 15, 60, 180 and 360 minutes post-administration, animals were euthanized and plasma and ocular tissues including sclera, cornea, retina, vitreous humour/lens and optic nerve were collected.
(§1) Bioanalysis of CDO was performed depending on the type of matrix. In the case of plasma, proteins were precipitated using methanol. In the case of tissues, samples were grinded in a Mini Bead Beater using zirconium beads and methanol/water (1:1) (v/v) as solvent. After centrifugation, samples were analyzed by UPLC-MS/MS.
(§2) Chromatographic separation was carried out using an Acquity CSH Fluoro Phenyl column (1.7 μm, 50×2.1 mm). Mobile phase consisted of a gradient using 0.1% formic acid in water and acetonitrile from 5% to 45% in 4.5 min at a flow rate of 0.6 ml/min.
(§3) With regard to the mass spectrometric detection, the electrospray ionization source worked to record negative ions. Multiple Reaction Monitoring (MRM) acquisition mode of the deprotonated molecular ions was performed. The transition monitored for CDO was m/z 189.0→80.1 with a cone voltage of 45 V and collision energy of 25 eV.

[2] = Ocular distribution of etamsylate following topical ocular single dose in rats; type: in vivo, Sprague Dawley (SD) rat; conditions: Sprague-Dawley, rat
Experimental: as §1, §2, §3
At 15, 60 and 180 minutes post-administration, animals were euthanized and ocular tissues including retina, and optic nerve were collected.
(§4) As described in Example 2.

[3] = Ocular tolerability of CDO in rats, clinical eye evaluation; type: in vivo, Diabetic SD male rats; conditions: CDO 100 mg/ml administered topically
Experimental: Diabetic SD male rats were treated with CDO compositions 2 and 5 of Example 1 for 28 days three times a day (topical instillation of 10 μl/eye). Clinical evaluation of the eye appearance was performed thorough the study.

[4] = Ocular distribution of CDO following 28-day topical ocular repeated dose in diabetic rats; type: in vivo; conditions: rat, retina, day 29, 0.25 h after single instillation, read-out: CDO μg/g tissue Retina
Experimental: 28-day repeated dose study in the diabetic rats was performed to assess CDO levels in retina at the steady state. CDO compositions 2 and 5 of Example 1 were administered by topical ocular instillation (10 μl/eye) TID for 28 days. At day 29 CDO was instilled a single time and retinas were collected 15 minutes post-administration.
as §4

[5] = rat, oral 50 mg/Kg = 10 mg, 0.25 h
[6] = rat, oral 50 mg/Kg = 10 mg, 1 h
[7] = rat, topical eye 10 mg/ml (eye drop of 10 μl) = 0.1 mg, 3 h
[8] = optic nerve, 0.126 mg, read-out: CDO μg/g tissue Optic nerve
[9] = optic nerve, 1.26 mg, read-out: CDO μg/g tissue Optic nerve
[10] = retina, 0.126 mg, read-out: CDO μg/g tissue Retina
[11] = retina, 1.26 mg, read-out: CDO μg/g tissue Retina

Structure (SMILES): O=S(=O)(O)c1cc(O)ccc1O [CDO, Calcium dobesilate monohydrate]
- concentration at 6 h ([1]; optic nerve, rat, topical eye 10 mg/ml (eye drop of 10 μl) = 0.1 mg, 6 h, read-out: CDO concentrations Optic nerve): 250 ng/g
- concentration at 0.25 h ([1]; optic nerve, rat, topical eye 100 mg/ml (eye drop of 10 μl) = 1 mg, 0.25 h, read-out: CDO concentrations Optic nerve): 13700 ng/g
- concentration at 1 h ([1]; optic nerve, rat, topical eye 100 mg/ml (eye drop of 10 μl) = 1 mg, 1 h, read-out: CDO concentrations Optic nerve): 2910 ng/g
- concentration at 3 h ([1]; optic nerve, rat, topical eye 100 mg/ml (eye drop of 10 μl) = 1 mg, 3 h, read-out: CDO concentrations Optic nerve): 1920 ng/g
- concentration at 6 h ([1]; optic nerve, rat, topical eye 100 mg/ml (eye drop of 10 μl) = 1 mg, 6 h, read-out: CDO concentrations Optic nerve): 2650 ng/g
- concentration at 0.25 h ([1]; plasma, rat, topical eye 10 mg/ml (eye drop of 10 μl) = 0.1 mg, 0.25 h, read-out: CDO concentrations Plasma): 10 ng/g
- concentration at 1 h ([1]; plasma, rat, topical eye 10 mg/ml (eye drop of 10 μl) = 0.1 mg, 1 h, read-out: CDO concentrations Plasma): 10 ng/g
- concentration at 3 h ([1]; plasma, rat, topical eye 10 mg/ml (eye drop of 10 μl) = 0.1 mg, 3 h, read-out: CDO concentrations Plasma): 80 ng/g
- concentration at 0.25 h ([1]; plasma, rat, topical eye 100 mg/ml (eye drop of 10 μl) = 1 mg, 0.25 h, read-out: CDO concentrations Plasma): 220 ng/g
- concentration at 1 h ([1]; plasma, rat, topical eye 100 mg/ml (eye drop of 10 μl) = 1 mg, 1 h, read-out: CDO concentrations Plasma): 370 ng/g
- concentration at 3 h ([1]; plasma, rat, topical eye 100 mg/ml (eye drop of 10 μl) = 1 mg, 3 h, read-out: CDO concentrations Plasma): 280 ng/g
- concentration at 1 h ([1]; retina/choroid, rat, topical eye 100 mg/ml (eye drop of 10 μl) = 1 mg, 1 h, read-out: CDO concentrations Retina/Choroid): 1520 ng/g
- concentration at 3 h ([1]; retina/choroid, rat, topical eye 100 mg/ml (eye drop of 10 μl) = 1 mg, 3 h, read-out: CDO concentrations Retina/Choroid): 1570 ng/g
- CDO amounts in target tissues (optic nerve and retina choroids) 6 hours after topical ocular administration ([1]; rat, 6 hours after topical ocular administration): could be detected
- CDO concentrations Optic nerve [1, 5]: —
- CDO concentrations Retina [1, 5]: —
- CDO concentrations Optic nerve [1, 6]: —
- CDO concentrations Retina [1, 6]: —
- CDO concentrations Retina ([1]; rat, oral 50 mg/Kg = 10 mg, 3 h): —
- CDO concentrations Retina ([1]; rat, oral 50 mg/Kg = 10 mg, 6 h): —
- amount of CDO orally administered showing equivalent levels in retina to 1 mg CDO instilled onto the eye surface ([1]; rat, single dose): 40 to 150 mg
- CDO concentrations Retina ([1]; rat, topical eye 10 mg/ml (eye drop of 10 μl) = 0.1 mg, 1 h): —
- CDO concentrations Optic nerve [1, 7]: —
- CDO concentrations Retina [1, 7]: —
- CDO concentrations Retina ([1]; rat, topical eye 10 mg/ml (eye drop of 10 μl) = 0.1 mg, 6 h): —
- plasmatic levels after topical eye administration ([1]; rats, topical eye administration): low plasmatic levels
- concentration at 0.25 h [2, 8]: 36.5 µg/g
- concentration at 1 h [2, 8]: 8.13 µg/g
- concentration at 3 h [2, 8]: 2.32 µg/g
- concentration at 0.25 h [2, 9]: 25.2 µg/g
- concentration at 1 h [2, 9]: 15.8 µg/g
- concentration at 3 h [2, 9]: 2.67 µg/g
- concentration at 0.25 h [2, 10]: 4.39 µg/g
- concentration at 1 h [2, 10]: 3.48 µg/g
- concentration at 3 h [2, 10]: 0.27 µg/g
- concentration at 0.25 h [2, 11]: 4.05 µg/g
- concentration at 1 h [2, 11]: 2.42 µg/g
- concentration at 3 h [2, 11]: 1.56 µg/g
- tolerance after topical administration [3]: good tolerance
- concentration at 0.25 h ([4]; 0.1 mg/eye, topical eye 28 days (3 administrations/day, 10 μl/eye) 10 mg/ml): 19.5 µg/g
- concentration at 0.25 h ([4]; 1 mg/eye, topical eye 28 days (3 administrations/day, 10 μl/eye) 100 mg/ml): 218 µg/g
